Measurements: the supplement of paper PMC10307832

How the values were obtained:
Test in all cases: relative viability (nuclei count vs DMSO), 5 days (fraction); higher = more cells survive
A-427 = tested on: A-427
Summary of the method: (§1)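 For relative viability, nuclei counts in treated wells were divided by those in vehicle wells. Lung cancer cell lines had been pin-tool dosed in 1536-well plates the day after seeding and cultured for 5 days, then fixed and stained in one step (final 0.05% Triton X-100, 1% formaldehyde, 1 ug/ml Hoechst) and imaged at 4×. Doses were one drug alone or a fixed anchor-drug dose plus five library-drug doses (not always all listed) in √10 steps, and values are duplicate-plate medians.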

ChaGo-K-1 = tested on: ChaGo-K-1
Summary of the method: as §1

EKVX = tested on: EKVX
Summary of the method: as §1

EMC-BAC-2 = tested on: EMC-BAC-2
Summary of the method: as §1

H3255 = tested on: H3255
Summary of the method: as §1

HCC-366 = tested on: HCC-366
Summary of the method: as §1

LK-2 = tested on: LK-2
Summary of the method: as §1

LOU-NH91 = tested on: LOU-NH91
Summary of the method: as §1

NCI-H1666 = tested on: NCI-H1666
Summary of the method: as §1

NCI-H1734 = tested on: NCI-H1734
Summary of the method: as §1

NCI-H1755 = tested on: NCI-H1755
Summary of the method: as §1

NCI-H1975 = tested on: NCI-H1975
Summary of the method: as §1

NCI-H2170 = tested on: NCI-H2170
Summary of the method: as §1

NCI-H23 = tested on: NCI-H23
Summary of the method: as §1

NCI-H441 = tested on: NCI-H441
Summary of the method: as §1

NCI-H596 = tested on: NCI-H596
Summary of the method: as §1

PC-3 [JPC-3] = tested on: PC-3 [JPC-3]
Summary of the method: as §1

SW 900 = tested on: SW 900
Summary of the method: as §1

`O=c1cc(-c2cccc3c2Sc2ccccc2S3)oc(N2CCOCC2)c1` + NC(=O)Nc1cc(-c2cccc(F)c2)sc1C(=O)N[C@H]1CCCNC1 [AZD7762] (partner 0.2 µM) gave a relative viability (A-427; first compound 0.08 µM) of 0.715, a relative viability (A-427; first compound 0.253 µM) of 0.842 and a relative viability (A-427; first compound 0.8 µM) of 0.791. It also gave a relative viability (A-427; first compound 2.53 µM) of 0.41, a relative viability (A-427; first compound 8 µM) of 0.616 and a relative viability (ChaGo-K-1; first compound 0.08 µM) of 0.827. It also gave a relative viability (ChaGo-K-1; first compound 0.253 µM) of 0.942, a relative viability (ChaGo-K-1; first compound 0.8 µM) of 0.779 and a relative viability (ChaGo-K-1; first compound 2.53 µM) of 0.889. The relative viability (ChaGo-K-1; first compound 8 µM) was 0.975, the relative viability (EKVX; first compound 0.08 µM) was 0.67 and the relative viability (EKVX; first compound 0.253 µM) was 0.709. It also gave a relative viability (EKVX; first compound 0.8 µM) of 0.74, a relative viability (EKVX; first compound 2.53 µM) of 0.669 and a relative viability (EKVX; first compound 8 µM) of 0.717. The relative viability (EMC-BAC-2; first compound 0.08 µM) was 1.06, the relative viability (EMC-BAC-2; first compound 0.253 µM) was 1.37 and the relative viability (EMC-BAC-2; first compound 0.8 µM) was 0.952. It also gave a relative viability (EMC-BAC-2; first compound 2.53 µM) of 1.11, a relative viability (EMC-BAC-2; first compound 8 µM) of 1.2 and a relative viability (H3255; first compound 0.08 µM) of 0.878. The relative viability (H3255; first compound 0.253 µM) was 0.996, the relative viability (H3255; first compound 0.8 µM) was 0.758 and the relative viability (H3255; first compound 2.53 µM) was 0.882. For the same molecule, the relative viability (H3255; first compound 8 µM) was 0.901, the relative viability (HCC-366; first compound 0.08 µM) was 0.258 and the relative viability (HCC-366; first compound 0.253 µM) was 0.32. The relative viability (HCC-366; first compound 0.8 µM) was 0.302, the relative viability (HCC-366; first compound 2.53 µM) was 0.118 and the relative viability (HCC-366; first compound 8 µM) was 0.222. It also gave a relative viability (LK-2; first compound 0.08 µM) of 0.468, a relative viability (LK-2; first compound 0.253 µM) of 0.331 and a relative viability (LK-2; first compound 0.8 µM) of 0.374. The relative viability (LK-2; first compound 2.53 µM) was 0.219, the relative viability (LK-2; first compound 8 µM) was 0.458 and the relative viability (LOU-NH91; first compound 0.08 µM) was 0.764. For the same molecule, the relative viability (LOU-NH91; first compound 0.253 µM) was 0.778, the relative viability (LOU-NH91; first compound 0.8 µM) was 0.697 and the relative viability (LOU-NH91; first compound 2.53 µM) was 0.714. For the same molecule, the relative viability (LOU-NH91; first compound 8 µM) was 0.786, the relative viability (NCI-H1666; first compound 0.08 µM) was 0.76 and the relative viability (NCI-H1666; first compound 0.253 µM) was 0.928. It also gave a relative viability (NCI-H1666; first compound 0.8 µM) of 0.781, a relative viability (NCI-H1666; first compound 2.53 µM) of 0.773 and a relative viability (NCI-H1666; first compound 8 µM) of 0.85. For the same molecule, the relative viability (NCI-H1734; first compound 0.08 µM) was 0.512, the relative viability (NCI-H1734; first compound 0.253 µM) was 0.541 and the relative viability (NCI-H1734; first compound 0.8 µM) was 0.581. It also gave a relative viability (NCI-H1734; first compound 8 µM) of 0.63, a relative viability (NCI-H1755; first compound 0.08 µM) of 0.535 and a relative viability (NCI-H1755; first compound 0.253 µM) of 0.453. The relative viability (NCI-H1755; first compound 0.8 µM) was 0.439, the relative viability (NCI-H1755; first compound 2.53 µM) was 0.566 and the relative viability (NCI-H1755; first compound 8 µM) was 0.418. It also gave a relative viability (NCI-H1975; first compound 0.08 µM) of 0.601, a relative viability (NCI-H1975; first compound 0.253 µM) of 0.733 and a relative viability (NCI-H1975; first compound 0.8 µM) of 0.502. It also gave a relative viability (NCI-H1975; first compound 2.53 µM) of 0.631, a relative viability (NCI-H1975; first compound 8 µM) of 0.678 and a relative viability (NCI-H2170; first compound 0.08 µM) of 0.842. It also gave a relative viability (NCI-H2170; first compound 0.253 µM) of 0.868, a relative viability (NCI-H2170; first compound 0.8 µM) of 0.996 and a relative viability (NCI-H2170; first compound 2.53 µM) of 0.792. The relative viability (NCI-H2170; first compound 8 µM) was 0.804, the relative viability (NCI-H23; first compound 0.08 µM) was 0.205 and the relative viability (NCI-H23; first compound 0.253 µM) was 0.251. For the same molecule, the relative viability (NCI-H23; first compound 0.8 µM) was 0.349, the relative viability (NCI-H23; first compound 2.53 µM) was 0.203 and the relative viability (NCI-H23; first compound 8 µM) was 0.229. It also gave a relative viability (NCI-H441; first compound 0.08 µM) of 0.965, a relative viability (NCI-H441; first compound 0.253 µM) of 1.24 and a relative viability (NCI-H441; first compound 0.8 µM) of 1.18. The relative viability (NCI-H441; first compound 2.53 µM) was 0.941, the relative viability (NCI-H441; first compound 8 µM) was 1.21 and the relative viability (NCI-H596; first compound 0.08 µM) was 1.04. The relative viability (NCI-H596; first compound 0.253 µM) was 1.1, the relative viability (NCI-H596; first compound 0.8 µM) was 1.15 and the relative viability (NCI-H596; first compound 2.53 µM) was 1. The relative viability (NCI-H596; first compound 8 µM) was 1.22, the relative viability (PC-3 [JPC-3]; first compound 0.08 µM) was 0.721 and the relative viability (PC-3 [JPC-3]; first compound 0.253 µM) was 0.745. For the same molecule, the relative viability (PC-3 [JPC-3]; first compound 0.8 µM) was 0.758, the relative viability (PC-3 [JPC-3]; first compound 2.53 µM) was 0.766 and the relative viability (PC-3 [JPC-3]; first compound 8 µM) was 0.728. It also gave a relative viability (SW 900; first compound 0.253 µM) of 0.862, a relative viability (SW 900; first compound 0.8 µM) of 0.719 and a relative viability (SW 900; first compound 2.53 µM) of 0.525. For the same molecule, the relative viability (SW 900; first compound 8 µM) was 0.418.
